Reference: US20240091390A1, “IMPROVED CHOLECYSTOKININ-2 RECEPTOR (CCK2R) TARGETING FOR DIAGNOSIS AND THERAPY” (Medizinische Universität Innsbruck, priority 2021, published 2024)
Starred links: 1 amine or outer side, 2 acyl side, 3 side chain; linkers in the order of their positions; H or OH if unused. Non-standard residues stand in square brackets, D forms with d. Residues, ends and D or L forms follow the SMILES beside them. *: point of attachment. DOTA = O=C(O)CN1CCN(CC(=O)O)CCN(CC(=O)*)CCN(CC(=O)O)CC1; d(γGlu) = O=C(O)[C@@H](CCC(=O)[*:2])N[*:1]; 1Nal = N[C@@H](Cc1cccc2ccccc12)C(=O)O; NMeNle = CCCC[C@H](NC)C(=O)O; GABA = NCCCC(=O)O; βAla = NCCC(=O)O

Assays:
CCK2R = target: T1, CCK2R (Homo sapiens, UniProt P32239); experiment: Competition binding assay against [^125I][3-iodo-Tyr^12,Leu^15]gastrin-I on A431-CCK2R cells; conditions: displacement of [^125I][3-iodo-Tyr^12,Leu^15]gastrin-I, 1 h at RT
T1 construct: expressed in transfected cells; host or cells: A431 cells (A431-CCK2R), provided by Dr. Luigi Aloj
T1 sequence (P32239 1-447): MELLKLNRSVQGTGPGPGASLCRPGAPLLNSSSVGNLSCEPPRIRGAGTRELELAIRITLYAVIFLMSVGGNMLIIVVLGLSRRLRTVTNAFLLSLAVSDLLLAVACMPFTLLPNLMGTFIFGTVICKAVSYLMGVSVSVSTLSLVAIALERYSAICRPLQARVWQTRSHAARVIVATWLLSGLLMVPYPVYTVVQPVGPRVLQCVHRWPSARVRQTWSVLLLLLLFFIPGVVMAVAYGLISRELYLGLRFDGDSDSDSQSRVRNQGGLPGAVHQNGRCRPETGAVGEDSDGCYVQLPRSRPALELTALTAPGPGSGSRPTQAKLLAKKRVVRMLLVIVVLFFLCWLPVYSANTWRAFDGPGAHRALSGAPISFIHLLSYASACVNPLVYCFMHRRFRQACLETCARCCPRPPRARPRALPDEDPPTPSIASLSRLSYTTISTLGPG
Experimental: Affinity for CCK2R was studied in A431-CCK2R cells. […] Radioiodination of gastrin-I was carried out using the chloramine-T method. Non-carrier-added [^125I][3-iodo-Tyr^12,Leu^15]gastrin-I was obtained by HPLC purification and stored in aliquots at −20° C. Binding assays were carried out in 96-well filter plates (MultiScreenHTS-FB, Merck Group, Darmstadt, Germany) pretreated with 10 mM TRIS/139 mM NaCl pH 7.4 (2×250 μL). For the assay a number of 400,000 A431-CCK2R cells per well was prepared in 35 mM HEPES buffer pH 7.4 containing 10 mM MgCl2, 14 μM bacitracin and 0.5% BSA (a hypotonic solution disturbing the integrity of the cell membranes). The cells were incubated in triplicates with increasing concentrations of the peptidomimetics (0.0003 to 1,000 nM) and [^125I-Tyr^12]gastrin-I (˜25,000 cpm) for 1 h at RT. Incubation was interrupted by filtration of the medium and rapid rinsing with ice-cold 10 mM TRIS/139 mM NaCl pH 7.4 (2×200 μl) and the filters were counted in the gamma-counter. Half maximal inhibitory concentration (IC50) values were calculated following nonlinear regression with Origin software (Microcal Origin 6.1, Northampton, MA) and a representative assay was chosen for comparison.

[1] = Stability against enzymatic degradation in vivo (radio-HPLC of blood); set-up: species or system BALB/c mice; conditions: ^177Lu-labelled; for percentage of intact radioligand present in the blood: 30 min p.i.
Experimental: To further characterise the stability of the radiolabelled peptidomimetic in vivo, metabolic studies were carried out in 5-6-week-old female BALB/c mice (Charles River, Sulzfeld, Germany) injected intravenously with ^177Lu-labelled and ^68Ga-labelled peptidomimetics. All animal experiments were conducted in compliance with the Austrian animal protection laws and with the approval of the Austrian Ministry of Science. To allow monitoring of the metabolites by radio-HPLC, mice were injected with a higher amount of radioactivity (20-40 MBq ^177Lu, corresponding to ˜1 nmol total peptide, or ˜10 MBq ^68Ga, corresponding to ˜1 nmol total peptide) through a lateral tail vein and euthanized by cervical dislocation at selected time points p.i. […] A sample of blood was collected and the degradation was assessed by radio-HPLC. For this purpose blood samples were precipitated with ACN, centrifuged at 2000 g for 2 min and diluted with water (1:1/v:v) prior to HPLC analysis using a Dionex chromatography system including radiodetection and UV detection equipped with a Phenomenex Jupiter Proteo C12 column (90 Å, 4 μm, 250×4.6 mm) column using a water/acetonitrile/0.1% TFA gradient system.

[2] = 10 min after intravenous injection; cited from earlier work
[3] = test system: A431-CCK2R tumour xenografts; conditions: ^68Ga-labelled, previously reported (Klingler M et al., J Nucl Med 2019); cited from earlier work
in vivo [4] = conditions: female, athymic BALB/c nude, mouse, iv, total radioactivity
Experimental: (§1) For the induction of tumour xenografts, A431-CCK2R and A431-mock cells were injected subcutaneously in athymic BALB/c nude mice (Charles River or Janvier Labs), respectively (2 million cells in 200 μL). When tumours had reached a size of approximately 0.2 ml, biodistribution studies were carried out. Groups of 3-5 mice were injected intravenously via a lateral tail vein with the peptidomimetics, labelled with ^177Lu (0.5-1 MBq and 0.02-0.03 nmol peptidomimetic) or ^68Ga (˜0.5 MBq and 0.02-0.03 nmol peptidomimetic). […] After selected time points post-injection (p.i.) the animals were sacrificed by cervical dislocation, tumours and other tissues (blood, lung, heart, muscle, bone, spleen, intestine, liver, kidneys, stomach, pancreas) were removed, weighed, and their radioactivity measured in a gamma counter.
In further biodistribution studies the tumour uptake and imaging properties of different ^68Ga-labelled pepitdiomimetics was evaluated. For this purpose female athymic BALB/c nude mice (Janvier Labs, Le Genest Saint Isle, France) were inoculated with A431-CCK2R cells (left flank) at an age of 8-10 weeks.

[5] = test system: A431-CCK2R tumour xenografts; experiment: Biodistribution of ^177Lu-labelled peptidomimetics up to 7 days p.i.; conditions: difference not significant
Experimental: (§2) For the induction of tumour xenografts, A431-CCK2R and A431-mock cells were injected subcutaneously in athymic BALB/c nude mice (Charles River or Janvier Labs), respectively (2 million cells in 200 μL). When tumours had reached a size of approximately 0.2 ml, biodistribution studies were carried out. Groups of 3-5 mice were injected intravenously via a lateral tail vein with the peptidomimetics, labelled with ^177Lu (0.5-1 MBq and 0.02-0.03 nmol peptidomimetic) or ^68Ga (˜0.5 MBq and 0.02-0.03 nmol peptidomimetic). To check for receptor specificity blocking studies using co-injection of a 1000-fold molar excess of the unlabelled peptide (˜20 nmol) together with the administration of the ^177Lu-labelled peptide were performed (FIG. 3). After selected time points post-injection (p.i.) the animals were sacrificed by cervical dislocation, tumours and other tissues (blood, lung, heart, muscle, bone, spleen, intestine, liver, kidneys, stomach, pancreas) were removed, weighed, and their radioactivity measured in a gamma counter.
(§3) The biodistribution profile of ^177Lu-DOTA-MGSA and ^177Lu-DOTA-MGS5 over up to 7 days was studied in female athymic BALB/c nude mice, inoculated with A431-CCK2R cells (left flank) at an age of 6-8 weeks (5 animals per peptidomimetic and for each time point of 1 h, 24 h, 3 d and 7 d). When tumours had reached a size of approximately 0.1-0.2 ml, biodistribution studies were carried out.

[6] = Biodistribution of ^177Lu-labelled peptidomimetics at 4 h p.i. in xenografted nude mice; conditions: female, athymic BALB/c nude, mouse, iv, total radioactivity
Experimental: (§4) Biodistribution studies evaluating the tumour uptake of the radiolabelled inventive CCK2R targeting peptide analogues were performed in xenografted nude mice.
as §1
(§5) Results were expressed as percentage of injected activity per gram tissue (% IA/g) and tumour to organ activity ratios were calculated from the activity measured in the dissected tissues (FIGS. 2 and 3).

[7] = test system: A431-CCK2R and A431-mock tumour xenografts; conditions: ^177Lu-labelled, 4 h p.i., Klingler M et al., J Med Chem 2020; cited from earlier work
[8] = cited from earlier work
[9] = test system: A431-CCK2R tumour xenografts; conditions: mouse, in vivo
Experimental: as §2, §3

in vivo [10] = conditions: female, athymic BALB/c nude, mouse, iv, total radioactivity; remark: listed apart in the source
Experimental: as §4, §1, §5

in vivo [11] = conditions: female, athymic BALB/c nude, mouse, iv, total radioactivity; remark: listed apart in the source
Experimental: as §2, §3

[12] = tumour uptake in A431-CCK2R xenografts

CCCC[C@@H](C(=O)N[C@@H](CC(=O)O)C(=O)N[C@@H](Cc1cccc2ccccc12)C(N)=O)N(C)C(=O)[C@H](Cc1c[nH]c2ccccc12)NC(=O)CCNC(=O)CCCNC(=O)CCCNC(=O)CN1CCN(CC(=O)O)CCN(CC(=O)O)CCN(CC(=O)O)CC1 [DOTA-MGSB, DOTA-Gaba-Gaba-βAla-Trp-(NMe)Nle-Asp-1Nal-NH2] ({DOTA-GABA-GABA-βAla}-W[NMeNle]D[1Nal]-NH2)
IC50 (CCK2R): 0.31 ± 0.02 nM

CSCC[C@H](NC(=O)[C@H](Cc1c[nH]c2ccccc12)NC(=O)CNC(=O)[C@H](Cc1ccc(O)cc1)NC(=O)[C@H](C)NC(=O)[C@@H](CCC(=O)O)NC(=O)[C@@H](CCC(=O)O)NC(=O)[C@@H](CCC(=O)O)NC(=O)[C@@H](CCC(=O)O)NC(=O)[C@@H](CCC(=O)O)NC(=O)[C@@H](CCC(=O)O)NC(=O)CN1CCN(CC(=O)O)CCN(CC(=O)O)CCN(CC(=O)O)CC1)C(=O)N[C@@H](CC(=O)O)C(=O)N[C@@H](Cc1ccccc1)C(N)=O [^177Lu-PP-F11, metal not drawn]
percentage of intact radioligand present in the blood [1]: 5.5% | intact peptide in urine and blood [2]: no intact peptide could be found

CCCC[C@@H](C(=O)N[C@@H](CC(=O)O)C(=O)N[C@@H](Cc1cccc2ccccc12)C(N)=O)N(C)C(=O)[C@H](Cc1c[nH]c2ccccc12)NC(=O)CNC(=O)[C@H](Cc1ccc(O)cc1)NC(=O)[C@H](C)NC(=O)[C@@H](CCC(=O)O)NC(=O)CN1CCN(CC(=O)O)CCN(CC(=O)O)CCN(CC(=O)O)CC1 [^68Ga-DOTA-MGS5, metal not drawn]
kidney uptake [3]: 5.71±1.38 % IA/g | tumour uptake [3]: 23.3±4.7 % IA/g | tissue to tissue ratio at 1 h (in vivo [4]): 4.1 ± 0.3

CCCC[C@@H](C(=O)N[C@@H](CC(=O)O)C(=O)N[C@@H](Cc1cccc2ccccc12)C(N)=O)N(C)C(=O)[C@H](Cc1c[nH]c2ccccc12)NC(=O)CCNC(=O)CC(O)CNC(=O)CC(O)CNC(=O)CN1CCN(CC(=O)O)CCN(CC(=O)O)CCN(CC(=O)O)CC1 (single isomer, unassigned) [^68Ga-DOTA-MGSA, ^68Ga-DOTA-GABOB-GABOB-βAla-Trp-(NMe)Nle-Asp-1Nal-NH2, metal not drawn]
tissue to tissue ratio at 1 h (in vivo [4]): 11.2 ± 0.8 | tissue uptake at 1 h (in vivo [4]; kidney uptake): 2.4 ± 0.2 %ID/g | tissue uptake at 1 h (in vivo [4]; [12]): 27 ± 0.2 %ID/g

CCCC[C@@H](C(=O)N[C@@H](CC(=O)O)C(=O)N[C@@H](Cc1cccc2ccccc12)C(N)=O)N(C)C(=O)[C@H](Cc1c[nH]c2ccccc12)NC(=O)CCNC(=O)CC[C@@H](NC(=O)CC[C@@H](NC(=O)CN1CCN(CC(=O)O)CCN(CC(=O)O)CCN(CC(=O)O)CC1)C(=O)O)C(=O)O [^68Ga-DOTA-MGSC, ^68Ga-DOTA-γDGlu-γDGlu-βAla-Trp-(NMe)Nle-Asp-1Nal-NH2, metal not drawn] ({DOTA-d(γGlu)-d(γGlu)-βAla}-W[NMeNle]D[1Nal]-NH2)
tissue to tissue ratio at 1 h (in vivo [4]): 14.5 ± 0.6 | tissue uptake at 1 h (in vivo [4]; kidney uptake): 2.5 ± 0.1 %ID/g | tissue uptake at 1 h (in vivo [4]; [12]): 36 ± 1.4 %ID/g

CCCC[C@@H](C(=O)N[C@@H](CC(=O)O)C(=O)N[C@@H](Cc1cccc2ccccc12)C(N)=O)N(C)C(=O)[C@H](Cc1c[nH]c2ccccc12)NC(=O)CNC(=O)[C@H](Cc1ccc(O)cc1)NC(=O)[C@H](C)NC(=O)[C@@H](CCC(=O)O)NC(=O)CN1CCN(CC(=O)O)CCN(CC(=O)O)CCN(CC(=O)O)CC1 [^177Lu-DOTA-MGS5, metal not drawn]
percentage intact in the blood ([1]; 10 min p.i.): 85.9% | percentage of intact radioligand present in the blood [1]: 77.0% | uptake levels in the blood, comparison of the two peptidomimetics [5]: somewhat lower uptake levels | tissue uptake at 4 h ([6]; kidney, kidney uptake, ^177Lu-labelled, 4 h p.i.): 3.5 ± 0.9 %ID/g | tissue to tissue ratio at 4 h ([6]; tumour and kidney): 7 ± 2.2

CCCC[C@@H](C(=O)N[C@@H](CC(=O)O)C(=O)N[C@@H](Cc1cccc2ccccc12)C(N)=O)N(C)C(=O)[C@H](Cc1c[nH]c2ccccc12)NC(=O)CNC(=O)[C@H](Cc1ccc(O)cc1)NC(=O)[C@@H]1CCCN1C(=O)[C@@H](CCC(=O)O)NC(=O)CN1CCN(CC(=O)O)CCN(CC(=O)O)CCN(CC(=O)O)CC1 [^177Lu-DOTA-MGS8, metal not drawn] ({DOTA}-[dE]PYGW[NMeNle]D[1Nal]-NH2; C-terminus assumed)
percentage of intact radioligand present in the blood [1]: 56.8% | tumour uptake in A431-CCK2R xenografts [7]: 34.7±9.4 % IA/g

CCCC[C@@H](C(=O)N[C@@H](CC(=O)O)C(=O)N[C@@H](Cc1cccc2ccccc12)C(N)=O)N(C)C(=O)[C@H](Cc1c[nH]c2ccccc12)NC(=O)CCNC(=O)CC(O)CNC(=O)CC(O)CNC(=O)CN1CCN(CC(=O)O)CCN(CC(=O)O)CCN(CC(=O)O)CC1 (stereo partly drawn) [DOTA-MGSA, DOTA-Gabob-Gabob-βAla-Trp-(NMe)Nle-Asp-1Nal-NH2]
IC50 (CCK2R): 0.21 ± 0.01 nM

[1,4,7,10-tetraazacyclodocecan-1,4,7,10-tetraacetic acid^0,D-Glu^1,DesGlu^2-6]minigastrin [^111In-DOTA-MG11]
biological half-life in vivo [8]: below five minutes

CCCC[C@@H](C(=O)N[C@@H](CC(=O)O)C(=O)N[C@@H](Cc1cccc2ccccc12)C(N)=O)N(C)C(=O)[C@H](Cc1c[nH]c2ccccc12)NC(=O)CCNC(=O)CC(O)CNC(=O)CC(O)CNC(=O)CN1CCN(CC(=O)O)CCN(CC(=O)O)CCN(CC(=O)O)CC1 (single isomer, unassigned) [^177Lu-DOTA-MGSA, ^177Lu-DOTA-GABOB-GABOB-βAla-Trp-(NMe)Nle-Asp-1Nal-NH2, metal not drawn]
accumulation of radioactivity in kidneys compared to ^177Lu-DOTA-MGS5 [9]: significantly lower | tissue to tissue ratio at 4 h (in vivo [10]): 16.7 ± 2.7 | tissue uptake at 4 h (in vivo [10]; kidney uptake): 2 ± 0.3 %ID/g | tissue uptake at 4 h (in vivo [10]; [12]): 32.1 ± 4.1 %ID/g | tissue uptake at 1 h (in vivo [11]): 56.3 ± 9.1 %ID/g | tissue uptake at 168 h (in vivo [11]): 1.2 ± 0.5 %ID/g

CCCC[C@H](NC(=O)[C@H](Cc1c[nH]c2ccccc12)NC(=O)CNC(=O)[C@H](Cc1ccc(O)cc1)NC(=O)[C@H](C)NC(=O)[C@@H](CCC(=O)O)NC(=O)[C@@H](CCC(=O)O)NC(=O)[C@@H](CCC(=O)O)NC(=O)[C@@H](CCC(=O)O)NC(=O)[C@@H](CCC(=O)O)NC(=O)[C@@H](CCC(=O)O)NC(=O)CN1CCN(CC(=O)O)CCN(CC(=O)O)CCN(CC(=O)O)CC1)C(=O)N[C@@H](CC(=O)O)C(=O)N[C@@H](Cc1ccccc1)C(N)=O [^177Lu-PP-F11N, DOTA-DGlu-DGlu-DGlu-DGlu-DGlu-DGlu-Ala-Tyr-Gly-Trp-Nle-Asp-Phe-NH2, metal not drawn]
percentage of intact radioligand present in the blood [1]: 12.7%

CCCC[C@@H](C(=O)N[C@@H](CC(=O)O)C(=O)N[C@@H](Cc1cccc2ccccc12)C(N)=O)N(C)C(=O)[C@H](Cc1c[nH]c2ccccc12)NC(=O)CCNC(=O)CC[C@@H](NC(=O)CC[C@@H](NC(=O)CN1CCN(CC(=O)O)CCN(CC(=O)O)CCN(CC(=O)O)CC1)C(=O)O)C(=O)O [DOTA-MGSC, DOTA-γDGlu-γDGlu-βAla-Trp-(NMe)Nle-Asp-1Nal-NH2] ({DOTA-d(γGlu)-d(γGlu)-βAla}-W[NMeNle]D[1Nal]-NH2)
IC50 (CCK2R): 0.16 ± 0.01 nM
